# Measured values published in ChEMBL document CHEMBL1125437, “Syntheses, resolution, and structure-activity relationships of potent acetylcholinesterase inhibitors: 8-carbaphysostigmine analogues” (J Med Chem, 1992).
# pIC50: −log10 of the molar value.
# Biological target: T1, Acetylcholinesterase (Homo sapiens, UniProt P22303)
# Assay: In vitro inhibitory activity against human Acetylcholinesterase
# Conditions: not given
# T1 sequence (P22303 whole entry): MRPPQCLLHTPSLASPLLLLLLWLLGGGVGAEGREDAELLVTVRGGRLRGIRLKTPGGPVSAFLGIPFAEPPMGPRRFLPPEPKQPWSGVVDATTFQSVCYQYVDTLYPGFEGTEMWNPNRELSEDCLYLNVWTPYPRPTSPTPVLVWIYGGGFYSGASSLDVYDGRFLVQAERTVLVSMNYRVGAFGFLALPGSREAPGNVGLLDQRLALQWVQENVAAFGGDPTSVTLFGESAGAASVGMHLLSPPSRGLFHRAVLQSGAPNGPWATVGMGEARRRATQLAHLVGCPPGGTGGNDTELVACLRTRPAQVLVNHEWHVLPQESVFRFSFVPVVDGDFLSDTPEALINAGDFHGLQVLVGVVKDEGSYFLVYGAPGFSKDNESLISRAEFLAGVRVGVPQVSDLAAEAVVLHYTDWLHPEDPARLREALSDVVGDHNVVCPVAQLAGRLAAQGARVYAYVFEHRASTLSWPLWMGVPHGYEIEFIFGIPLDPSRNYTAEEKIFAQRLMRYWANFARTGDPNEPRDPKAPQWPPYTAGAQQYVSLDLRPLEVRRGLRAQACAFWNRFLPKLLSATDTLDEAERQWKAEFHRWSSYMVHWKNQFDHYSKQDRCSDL
row,Structure (SMILES),pIC50
1,CCN1CC[C@@]2(C)c3cc(OC(=O)NC)ccc3CC12 (mixture of isomers),7.42
2,CCCCCCCNC(=O)Oc1ccc2c(c1)[C@@H]1CCN(CC)C1C2 (mixture of isomers),6.42
3,CCCCNC(=O)Oc1ccc2c(c1)[C@]1(C)CCN(CC)C1C2 (mixture of isomers),7.05
4,CCCCCCNC(=O)Oc1ccc2c(c1)[C@]1(C)CCN(CCC)C1C2.Cc1ccc(C(=O)OC(C(=O)O)C(OC(=O)c2ccc(C)cc2)C(=O)O)cc1.O (mixture of isomers),7.21
5,CCCCCCCNC(=O)Oc1ccc2c(c1)[C@]1(C)CCN(CCC)C1C2 (stereo partly drawn),7.03
6,CCCCCCCNC(=O)Oc1ccc2c(c1)[C@]1(C)CCN(Cc3ccccc3)C1C2 (stereo partly drawn),6.30

# Tested on: Mus musculus
# Assay: Percent elevation of ACh level in mouse forebrain following intraperitoneal administration at a dose of 2.0 mg/kg
# Type: functional
# Conditions: not given
row,Structure (SMILES),Control [%]
1,CCCCCCNC(=O)Oc1ccc2c(c1)[C@]1(C)CCN(C)C1C2 (mixture of isomers),162

# Tested on: Mus musculus
# Assay: Percent elevation of ACh level in mouse forebrain following intraperitoneal administration at a dose of 1.2 mg/kg
# Type: functional
# Conditions: not given
row,Structure (SMILES),Control [%]
1,"CCCCCCCNC(=O)Oc1ccc2c(c1)[C@]1(C)CCN(CC)C1C2 (single isomer, unassigned; (-))",129

# Tested on: Mus musculus
# Assay: Percent elevation of ACh level in mouse forebrain following intraperitoneal administration at a dose of 1.6 mg/kg
# Type: functional
# Conditions: not given
row,Structure (SMILES),Control [%]
1,CCN1CC[C@@]2(C)c3cc(OC(=O)Nc4ccccc4)ccc3CC12 (mixture of isomers),121

# Biological target: T1, Acetylcholinesterase
# Assay: In vitro inhibitory activity against human AchE (Acetylcholinesterase)
# Conditions: not given
row,Structure (SMILES),pIC50
1,CCCCCCCNC(=O)Oc1ccc2c(c1)[C@]1(C)CCN(CC)C1C2 (mixture of isomers),7.24
2,CCN1CC[C@@]2(C)c3cc(OC(=O)Nc4ccccc4)ccc3CC12 (mixture of isomers),6.75
3,"CCCCCCCNC(=O)Oc1ccc2c(c1)[C@]1(C)CCN(CC)C1C2 (single isomer, unassigned; (-))",7.44
4,"CCCCCCCNC(=O)Oc1ccc2c(c1)[C@]1(C)CCN(CC)C1C2 (single isomer, unassigned; (+))",6.68
5,CCCCCCNC(=O)Oc1ccc2c(c1)[C@@H]1CCN(CCC)C1C2 (stereo in doubt; 1z),6.29
6,CCCNC(=O)Oc1ccc2c(c1)[C@@H]1CCN(CC)C1C2 (stereo partly drawn),5.66
7,CCCCCCCNC(=O)Oc1ccc2c(c1)[C@@H]1CCN(CCC)C1C2 (stereo partly drawn),6.20
8,CCCCNC(=O)Oc1ccc2c(c1)[C@@H]1CCN(CC)C1C2 (mixture of isomers),5.97
9,CCCCCCCNC(=O)Oc1ccc2c(c1)[C@]1(C)CCN(C)[C@@H]1N2C [EPTASTIGMINE],6.96
10,"CCCCCCNC(=O)Oc1ccc2c(c1)[C@]1(C)CCN(CC)C1C2 (single isomer, unassigned; (-))",7.70
11,CCCNC(=O)Oc1ccc2c(c1)[C@]1(C)CCN(CC)C1C2 (mixture of isomers),6.81
12,CCCCCCNC(=O)Oc1ccc2c(c1)[C@@H]1CCN(CC)C1C2 (mixture of isomers),6.68
13,"CCCCCCNC(=O)Oc1ccc2c(c1)[C@]1(C)CCN(CC)C1C2 (single isomer, unassigned; (+))",6.63
14,CCN1CC[C@H]2c3cc(OC(=O)NC)ccc3CC21 (stereo partly drawn),6.60
15,CCCCCCNC(=O)Oc1ccc2c(c1)[C@]1(C)CCN(C)C1C2 (mixture of isomers),7.11
16,CCCCCCCNC(=O)Oc1ccc2c(c1)[C@]1(C)CCN(C)C1C2 (stereo partly drawn),6.94
17,CCCCCCNC(=O)Oc1ccc2c(c1)[C@]1(C)CCN(CC)C1C2 (mixture of isomers),7.35
18,CCCCCCNC(=O)Oc1ccc2c(c1)[C@@H]1CCN(CCC)C1C2 (stereo in doubt; 1y),6.26
19,CCN1CC[C@@]2(C)c3cc(OC(=O)N[C@@H](C)c4ccccc4)ccc3CC12 (stereo partly drawn),5.88

# Tested on: Mus musculus
# Assay: Percent elevation of ACh level in mouse forebrain following intraperitoneal administration at a dose of 4.8 mg/kg
# Type: functional
# Conditions: not given
row,Structure (SMILES),Control [%]
1,CCCCCCCNC(=O)Oc1ccc2c(c1)[C@]1(C)CCN(C)[C@@H]1N2C [EPTASTIGMINE],148

# Tested on: Mus musculus
# Assay: Percent elevation of ACh level in mouse forebrain following intraperitoneal administration at a dose of 0.4 mg/kg
# Type: functional
# Conditions: not given
row,Structure (SMILES),Control [%]
1,CCN1CC[C@@]2(C)c3cc(OC(=O)NCc4ccccc4)ccc3CC12 (mixture of isomers),123

# Tested on: Mus musculus
# Assay: (§1) In vitro lethality measured at 24 hours in mice following intraperitoneal administration
# Conditions: in vivo, ip, 24 h
row,Structure (SMILES),LD50 [mg/kg]
1,CCCCCCCNC(=O)Oc1ccc2c(c1)[C@]1(C)CCN(CC)C1C2 (mixture of isomers),9
2,"CCCCCCCNC(=O)Oc1ccc2c(c1)[C@]1(C)CCN(CC)C1C2 (single isomer, unassigned; (-))",6
3,"CCCCCCCNC(=O)Oc1ccc2c(c1)[C@]1(C)CCN(CC)C1C2 (single isomer, unassigned; (+))",18
4,"CCCCCCNC(=O)Oc1ccc2c(c1)[C@]1(C)CCN(CC)C1C2 (single isomer, unassigned; (-))",4
5,"CCCCCCNC(=O)Oc1ccc2c(c1)[C@]1(C)CCN(CC)C1C2 (single isomer, unassigned; (+))",32
6,CCCCCCNC(=O)Oc1ccc2c(c1)[C@]1(C)CCN(CC)C1C2 (mixture of isomers),5

# Tested on: not listed separately
# Assay: as §1
# Conditions: mouse, in vivo, ip, LD50
row,Structure (SMILES),LD50 at 24 h [mg/kg]
1,CCN1CC[C@@]2(C)c3cc(OC(=O)NC)ccc3CC12 (mixture of isomers),0.88
2,CCN1CC[C@@]2(C)c3cc(OC(=O)NCc4ccccc4)ccc3CC12 (mixture of isomers),2
3,CCN1CC[C@@]2(C)c3cc(OC(=O)Nc4ccccc4)ccc3CC12 (mixture of isomers),8
4,CCCCCCCNC(=O)Oc1ccc2c(c1)[C@@H]1CCN(CC)C1C2 (mixture of isomers),58
5,CNC(=O)Oc1ccc2c(c1)[C@]1(C)CCN(C)[C@@H]1N2C [PHYSOSTIGMINE],0.88
6,CCCCNC(=O)Oc1ccc2c(c1)[C@]1(C)CCN(CC)C1C2 (mixture of isomers),4
7,CCCCNC(=O)Oc1ccc2c(c1)[C@@H]1CCN(CC)C1C2 (mixture of isomers),> 32
8,CCCCCCCNC(=O)Oc1ccc2c(c1)[C@]1(C)CCN(C)[C@@H]1N2C [EPTASTIGMINE],24
9,CCCCCCNC(=O)Oc1ccc2c(c1)[C@]1(C)CCN(CCC)C1C2.Cc1ccc(C(=O)OC(C(=O)O)C(OC(=O)c2ccc(C)cc2)C(=O)O)cc1.O (mixture of isomers),17
10,CCCNC(=O)Oc1ccc2c(c1)[C@]1(C)CCN(CC)C1C2 (mixture of isomers),6
11,CCCCCCNC(=O)Oc1ccc2c(c1)[C@@H]1CCN(CC)C1C2 (mixture of isomers),19
12,CCN1CC[C@@]2(C)c3cc(OC(=O)NC(C)(C)C)ccc3CC12 (mixture of isomers),> 100
13,CCCCCCCNC(=O)Oc1ccc2c(c1)[C@]1(C)CCN(CCC)C1C2 (stereo partly drawn),27
14,CCCCCCNC(=O)Oc1ccc2c(c1)[C@]1(C)CCN(C)C1C2 (mixture of isomers),10
15,CCCCCCCNC(=O)Oc1ccc2c(c1)[C@]1(C)CCN(C)C1C2 (stereo partly drawn),21

# Tested on: Mus musculus
# Assay: Percent elevation of ACh level in mouse forebrain following intraperitoneal administration at a dose of 3.4 mg/kg
# Type: functional
# Conditions: not given
row,Structure (SMILES),Control [%]
1,CCCCCCNC(=O)Oc1ccc2c(c1)[C@]1(C)CCN(CCC)C1C2.Cc1ccc(C(=O)OC(C(=O)O)C(OC(=O)c2ccc(C)cc2)C(=O)O)cc1.O (mixture of isomers),141

# Tested on: Mus musculus
# Assay: Percent elevation of ACh level in mouse forebrain following intraperitoneal administration at a dose of 0.8 mg/kg
# Type: functional
# Conditions: not given
row,Structure (SMILES),Control [%]
1,"CCCCCCNC(=O)Oc1ccc2c(c1)[C@]1(C)CCN(CC)C1C2 (single isomer, unassigned; (-))",148
